Experimental data taken from paper PMC11435058, “Synthesis of New Thiazole-Privileged Chalcones as Tubulin Polymerization Inhibitors with Potential Anticancer Activities” (Pharmaceuticals, 2024).

Key:
OVCAR-8 = test: NCI-60 anticancer screen (SRB; single dose and five doses); settings: Homo sapiens
OVCAR-3 = test: cells; settings: Homo sapiens
HCC-2998 = test: NCI-60 anticancer screen (SRB; single dose and five doses)
TK-10 = test: as above; settings: Homo sapiens
SNB-75 = test: as above
SK-OV-3 = test: as above; settings: Homo sapiens
MDA-MB-468 = test: as above; assay type: cell-based, human
Method: The methodology of the NCI anticancer screening has been described in detail elsewhere (http://www.dtp.nci.nih.gov). For detailed information, see Appendix A in the Supplementary Materials.
4.2.1. Screening of the anticancer activity against a panel of 60 cell Lines.
The methodology of the NCI anticancer screening has been described in detail elsewhere (http://www.dtp.nci.nih.gov.) Briefly, the primary anticancer assay was performed at approximately 60 human tumor cell lines panel derived from nine neoplastic diseases, in accordance with the protocol of the Drug Evaluation Branch, National Cancer Institute, Bethesda. Tested compounds were added to the culture at a single concentration (10μM) and the cultures were incubated for 48 h. End -point determinations were made with a protein binding dye, SRB. Results for each tested compound was reported as the percent of growth of the treated cells when compared to the untreated control cells. The percentage growth was evaluated spectrophotometrically versus controls not treated with test agents. […]

NCI-H23 = test: as above; settings: Homo sapiens
ACHN = test: as above; settings: Homo sapiens
M14 = test: as above; settings: Homo sapiens
HCT-116 = test: as above; settings: Homo sapiens
SF-539 = test: as above; settings: Homo sapiens
MDA-MB-435 = test: as above; settings: Homo sapiens
SK-MEL-28 = test: as above; settings: Homo sapiens
NCI-H522 = test: as above; settings: Homo sapiens
UO-31 = test: as above; settings: Homo sapiens
786-0 = test: as above; settings: Homo sapiens
U251 = test: as above; settings: Homo sapiens
NCI-H460 = test: as above; settings: Homo sapiens
SW-620 = test: as above; settings: Homo sapiens
EKVX = test: as above; settings: Homo sapiens
A498 = test: as above; settings: Homo sapiens
OVCAR-4 = test: as above; settings: Homo sapiens
SN12C = test: as above; settings: Homo sapiens
SNB-19 = test: cells; settings: Homo sapiens
[1] = 48 h, read-out: Growth Percentage

Structure (SMILES): Cc1[nH]c(=S)sc1C(=O)/C=C/c1cccc([N+](=O)[O-])c1 [2h, (E)-1-(4-Methyl-2-Thioxo-2,3-Dihydrothiazol-5-yl)-3-(3-Nitrophenyl)Prop-2-En-1-One]
- GI50 (OVCAR-8; OVCAR-8): 3.31 µM
- IC50 (OVCAR-8; OVCAR-8): 4.57 µM
- activity at 10 µM (OVCAR-8; OVCAR-8, 48 h, read-out: Growth Percentage): 13.4%
- CC50 (OVCAR-8; OVCAR-8, read-out: LC50): 38 µM
- IC (TGI) (OVCAR-8; OVCAR-8, read-out: TGI): 11.8 µM
- GI50 (OVCAR-3; OVCAR-3): 2.4 µM
- activity at 10 µM (OVCAR-3; OVCAR-3, 48 h, read-out: Growth Percentage): -79.5%
- IC50 (OVCAR-3; OVCAR-3, five-dose, Ovarian Cancer OVCAR-3): 4.37 µM
- CC50 (OVCAR-3; OVCAR-3, read-out: LC50): 24 µM
- IC (TGI) (OVCAR-3; OVCAR-3, read-out: TGI): 6.46 µM
- GI50 (HCC-2998; Homo sapiens, HCC 2998): 2 µM
- IC50 (HCC-2998; Homo sapiens, HCC 2998): 3.63 µM
- activity at 10 µM (HCC-2998; Homo sapiens, HCC 2998, 48 h, read-out: Growth Percentage): -86.7%
- CC50 (HCC-2998; Homo sapiens, HCC 2998, read-out: LC50): 11.8 µM
- TGI (HCC-2998; five-dose, Colon Cancer HCC-2998): 4.57 µM
- GI50 (TK-10; TK-10): 11.2 µM
- IC50 (TK-10; TK-10): 22.9 µM
- CC50 (TK-10; TK-10, read-out: LC50): 50.1 µM
- IC (TGI) (TK-10; TK-10, read-out: TGI): 23.4 µM
- GI50 (SNB-75; Homo sapiens, SNB-75): 2.29 µM
- IC50 (SNB-75; Homo sapiens, SNB-75): 8.51 µM
- CC50 (SNB-75; Homo sapiens, SNB-75, read-out: LC50): 27.5 µM
- TGI (SNB-75; five-dose, CNS Cancer SNB-75): 7.41 µM
- GI50 (SK-OV-3; SK-OV-3): 5.89 µM
- IC50 (SK-OV-3; SK-OV-3): 15.1 µM
- activity at 10 µM (SK-OV-3; SK-OV-3, 48 h, read-out: Growth Percentage): 44.6%
- CC50 (SK-OV-3; SK-OV-3, read-out: LC50): 45.7 µM
- IC (TGI) (SK-OV-3; SK-OV-3, read-out: TGI): 18.6 µM
- activity at 10 µM (MDA-MB-468; Homo sapiens, 48 h, MDA-MB-468, dose of 10 μM, read-out: Growth Percentage): -82.9%
- IC50 (MDA-MB-468; Homo sapiens, MDA-MB-468, MDA-MB-468, Breast Cancer, five dose): 7.76 µM
- GI50 (MDA-MB-468; Homo sapiens, MDA-MB-468, Breast Cancer, five dose): 2.95 µM
- CC50 (MDA-MB-468; Homo sapiens, MDA-MB-468, Breast Cancer, five dose, read-out: LC50 (the source's name)): 40.7 µM
- TGI (MDA-MB-468; MDA-MB-468, Breast Cancer, five dose): 10.72 µM
- GI50 (NCI-H23; NCI-H23): 5.37 µM
- IC50 (NCI-H23; NCI-H23): 10 µM
- activity at 10 µM (NCI-H23; NCI-H23, 48 h, read-out: Growth Percentage): -72.8%
- CC50 (NCI-H23; NCI-H23, read-out: LC50): 45.7 µM
- IC (TGI) (NCI-H23; NCI-H23, read-out: TGI): 18.2 µM
- GI50 (ACHN): 4.07 µM
- IC50 (ACHN): 6.17 µM
- activity at 10 µM (ACHN; [1]): -58.4%
- CC50 (ACHN; read-out: LC50): 38.9 µM
- IC (TGI) (ACHN; read-out: TGI): 14.8 µM
- GI50 (M14; M14): 7.08 µM
- IC50 (M14; M14): 11.8 µM
- activity at 10 µM (M14; M14, 48 h, read-out: Growth Percentage): 1.86%
- CC50 (M14; M14, read-out: LC50): 83.2 µM
- IC (TGI) (M14; M14, read-out: TGI): 25.7 µM
- GI50 (HCT-116; HCT-116): 2.88 µM
- IC50 (HCT-116; HCT-116): 3.31 µM
- activity at 10 µM (HCT-116; HCT-116, 48 h, read-out: Growth Percentage): -6.25%
- CC50 (HCT-116; HCT-116, read-out: LC50): > 100 µM
- IC (TGI) (HCT-116; HCT-116, read-out: TGI): > 100 µM
- GI50 (SF-539; SF-539): 2.19 µM
- IC50 (SF-539; SF-539): 3.98 µM
- activity at 10 µM (SF-539; SF-539, 48 h, read-out: Growth Percentage): -85.9%
- CC50 (SF-539; SF-539, read-out: LC50): 12.9 µM
- IC (TGI) (SF-539; SF-539, read-out: TGI): 4.9 µM
- GI50 (MDA-MB-435; MDA-MB-435): 4.57 µM
- IC50 (MDA-MB-435; MDA-MB-435): 7.41 µM
- activity at 10 µM (MDA-MB-435; MDA-MB-435, 48 h, read-out: Growth Percentage): -37%
- CC50 (MDA-MB-435; MDA-MB-435, read-out: LC50): 44.7 µM
- IC (TGI) (MDA-MB-435; MDA-MB-435, read-out: TGI): 17 µM
- GI50 (SK-MEL-28; SK-MEL-28): 5.5 µM
- IC50 (SK-MEL-28; SK-MEL-28): 13.2 µM
- activity at 10 µM (SK-MEL-28; SK-MEL-28, 48 h, read-out: Growth Percentage): -47%
- CC50 (SK-MEL-28; SK-MEL-28, read-out: LC50): 44.7 µM
- IC (TGI) (SK-MEL-28; SK-MEL-28, read-out: TGI): 18.2 µM
- GI50 (NCI-H522; NCI-H522): 5.01 µM
- IC50 (NCI-H522; NCI-H522): 11.8 µM
- activity at 10 µM (NCI-H522; NCI-H522, 48 h, read-out: Growth Percentage): -58.8%
- CC50 (NCI-H522; NCI-H522, read-out: LC50): 46.8 µM
- IC (TGI) (NCI-H522; NCI-H522, read-out: TGI): 17.8 µM
- GI50 (UO-31; UO-31): 3.89 µM
- IC50 (UO-31; UO-31): 10.7 µM
- activity at 10 µM (UO-31; UO-31, 48 h, read-out: Growth Percentage): -89.6%
- CC50 (UO-31; UO-31, read-out: LC50): 43.6 µM
- IC (TGI) (UO-31; UO-31, read-out: TGI): 17 µM
- GI50 (786-0; 786-0): 3.98 µM
- IC50 (786-0; 786-0): 6.31 µM
- activity at 10 µM (786-0; 786-0, 48 h, read-out: Growth Percentage): -10.8%
- CC50 (786-0; 786-0, read-out: LC50): 50.1 µM
- IC (TGI) (786-0; 786-0, read-out: TGI): 15.8 µM
- GI50 (U251; U-251): 1.74 µM
- IC50 (U251; U-251): 3.09 µM
- activity at 10 µM (U251; U-251, 48 h, read-out: Growth Percentage): -76%
- CC50 (U251; U-251, read-out: LC50): 5.89 µM
- IC (TGI) (U251; U-251, read-out: TGI): 3.24 µM
- GI50 (NCI-H460; NCI-H460): 3.63 µM
- IC50 (NCI-H460; NCI-H460): 4.27 µM
- activity at 10 µM (NCI-H460; NCI-H460, 48 h, read-out: Growth Percentage): -30.7%
- CC50 (NCI-H460; NCI-H460, read-out: LC50): 55 µM
- IC (TGI) (NCI-H460; NCI-H460, read-out: TGI): 13.8 µM
- GI50 (SW-620; SW-620): 3.39 µM
- IC50 (SW-620; SW-620): 4.07 µM
- activity at 10 µM (SW-620; SW-620, 48 h, read-out: Growth Percentage): -37.8%
- CC50 (SW-620; SW-620, read-out: LC50): 45.7 µM
- IC (TGI) (SW-620; SW-620, read-out: TGI): 11 µM
- GI50 (EKVX): 5.75 µM
- IC50 (EKVX): 15.1 µM
- activity at 10 µM (EKVX; [1]): 0.65%
- CC50 (EKVX; read-out: LC50): 46.8 µM
- IC (TGI) (EKVX; read-out: TGI): 19.5 µM
- GI50 (A498; A498): 14.8 µM
- IC50 (A498; A498): 29.5 µM
- CC50 (A498; A498, read-out: LC50): 55 µM
- IC (TGI) (A498; A498, read-out: TGI): 28.2 µM
- GI50 (OVCAR-4; OVCAR-4): 11 µM
- IC50 (OVCAR-4; OVCAR-4): 20.4 µM
- activity at 10 µM (OVCAR-4; OVCAR-4, 48 h, read-out: Growth Percentage): 13.1%
- CC50 (OVCAR-4; OVCAR-4, read-out: LC50): 51.3 µM
- IC (TGI) (OVCAR-4; OVCAR-4, read-out: TGI): 24 µM
- GI50 (SN12C): 2.69 µM
- IC50 (SN12C): 4.37 µM
- activity at 10 µM (SN12C; [1]): -25.6%
- CC50 (SN12C; read-out: LC50): 33.1 µM
- IC (TGI) (SN12C; read-out: TGI): 10.2 µM
- GI50 (SNB-19; SNB-19): 4.9 µM
- IC50 (SNB-19; SNB-19): 11.8 µM
- activity at 10 µM (SNB-19; SNB-19, 48 h, read-out: Growth Percentage): 10.4%
- CC50 (SNB-19; SNB-19, read-out: LC50): 41.7 µM
- IC (TGI) (SNB-19; SNB-19, read-out: TGI): 17 µM
